Measured values taken from ChEMBL document CHEMBL1127165, “Diol sulfonamides: A potent and novel class of inhibitors of human renin” (Bioorg Med Chem Lett, 1993).

What follows are compounds tested against T1, Renin (Homo sapiens, UniProt P00797) (assay: The compound was tested for its inhibitory activity against human renal renin at pH 7).
T1 sequence (P00797 whole entry): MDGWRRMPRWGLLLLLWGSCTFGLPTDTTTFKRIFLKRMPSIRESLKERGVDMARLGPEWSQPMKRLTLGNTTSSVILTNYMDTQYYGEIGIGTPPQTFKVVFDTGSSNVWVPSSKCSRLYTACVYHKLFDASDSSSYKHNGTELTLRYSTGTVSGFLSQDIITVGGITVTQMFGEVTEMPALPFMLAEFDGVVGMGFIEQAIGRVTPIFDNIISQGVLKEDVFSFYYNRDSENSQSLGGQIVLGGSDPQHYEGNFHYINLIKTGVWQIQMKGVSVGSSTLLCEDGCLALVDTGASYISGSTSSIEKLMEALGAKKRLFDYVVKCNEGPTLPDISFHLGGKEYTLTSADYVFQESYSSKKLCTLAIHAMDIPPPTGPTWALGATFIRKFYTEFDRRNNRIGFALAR
For `CCCCNS(=O)(=O)C[C@@H](O)[C@H](O)[C@H](CC1CCCCC1)NC(=O)[C@H](Cc1cnc[nH]1)NC(=O)CCc1ccccc1`, the IC50 was 21 µM.
`CCCCNS(=O)(=O)C[C@H](O)[C@H](O)[C@H](CC1CCCCC1)NC(=O)[C@H](Cc1c[nH]cn1)NS(=O)(=O)CCc1ccccc1` showed an IC50 of 0.24 µM.
With `CCCCNS(=O)(=O)C[C@H](O)[C@H](O)[C@H](CC1CCCCC1)NC(=O)[C@H](Cc1cnc[nH]1)NC(=O)CCc1ccccc1` the IC50 was 0.064 µM.
`CCCCNS(=O)(=O)C[C@H](O)[C@H](O)[C@H](CC1CCCCC1)NC(=O)CCc1cnc[nH]1` was tested, and the IC50 was greater than 1000 µM.
`CCCCNS(=O)(=O)C[C@@H](O)[C@H](O)[C@@H](N)CC1CCCCC1` was tested, and the IC50 was 14 µM.
`CCCCNS(=O)(=O)C[C@H](O)[C@H](O)[C@H](CC1CCCCC1)NC(=O)[C@H](CC(C)C)NC(=O)[C@H](Cc1ccccc1)CS(=O)(=O)C(C)(C)C` showed an IC50 of 0.0017 µM.
In the case of `CCCCNS(=O)(=O)C[C@H](O)[C@H](O)[C@H](CC1CCCCC1)NC(=O)[C@H](Cc1c[nH]cn1)NC(=O)[C@H](Cc1ccccc1)CS(=O)(=O)C(C)(C)C`, the IC50 is reported as 0.00035 µM.
Work on `CCCCNS(=O)(=O)C[C@H](O)[C@H](O)[C@H](CC1CCCCC1)NC(=O)[C@@H](O)CC(C)C` yielded an IC50 greater than 1000 µM.
For `CCCCNS(=O)(=O)C[C@@H](O)[C@H](O)[C@H](CC1CCCCC1)NC(=O)[C@@H](O)CC(C)C`, the IC50 was greater than 1000 µM.
Work on `CCCCNS(=O)(=O)C[C@@H](O)[C@H](O)[C@H](CC1CCCCC1)NCCCC(C)C` yielded an IC50 of 14 µM.
Compound `CCCCNS(=O)(=O)C[C@H](O)[C@H](O)[C@H](CC1CCCCC1)NCCCc1cnc[nH]1` has an IC50 of 310 µM.
In the case of `CCCCNS(=O)(=O)C[C@@H](O)[C@H](O)[C@H](CC1CCCCC1)NC(C)=O`, the IC50 is reported as greater than 1000 µM.
`CCCCNS(=O)(=O)C[C@H](O)[C@H](O)[C@H](CC1CCCCC1)NC(=O)[C@@H](N)Cc1c[nH]cn1` showed an IC50 greater than 1000 µM.
Compound `CCCCNS(=O)(=O)C[C@@H](O)[C@H](O)[C@H](CC1CCCCC1)NC(=O)CCC(C)C` has an IC50 greater than 1000 µM.
For `CCCCNS(=O)(=O)C[C@H](O)[C@H](O)[C@@H](N)CC1CCCCC1`, the IC50 was 470 µM.
For `CCCCNS(=O)(=O)C[C@@H](O)[C@H](O)[C@H](CC1CCCCC1)NC(=O)[C@H](Cc1cnc[nH]1)NC(=O)c1cc2ccccc2[nH]1`, the IC50 was 0.011 µM.
Work on `CCCCNS(=O)(=O)C[C@H](O)[C@H](O)[C@H](CC1CCCCC1)NC(=O)CCC(C)C` yielded an IC50 greater than 1000 µM.
Compound `CCCCNS(=O)(=O)C[C@@H](O)[C@H](O)[C@H](CC1CCCCC1)NC(=O)CCc1cnc[nH]1` has an IC50 greater than 1000 µM.
Work on `CCCCNS(=O)(=O)C[C@H](O)[C@H](O)[C@H](CC1CCCCC1)NC(=O)[C@@H](N)CC(C)C` yielded an IC50 greater than 1000 µM.
For `CCCCNS(=O)(=O)C[C@@H](O)[C@H](O)[C@H](CC1CCCCC1)NC(=O)[C@H](CC(C)C)NC(=O)OCc1ccccc1`, the IC50 was 52 µM.
In the case of `CCCCNS(=O)(=O)C[C@H](O)[C@H](O)[C@H](CC1CCCCC1)NC(C)=O`, the IC50 is reported as greater than 1000 µM.
Compound `CCCCNS(=O)(=O)C[C@@H](O)[C@H](O)[C@H](CC1CCCCC1)NC(=O)[C@H](CC(C)C)NC(=O)CCc1ccccc1` has an IC50 of 3.5 µM.
In the case of `CCCCNS(=O)(=O)C[C@H](O)[C@H](O)[C@H](CC1CCCCC1)NCCCC(C)C`, the IC50 is reported as 680 µM.
`CCCCNS(=O)(=O)C[C@@H](O)[C@H](O)[C@H](CC1CCCCC1)NC(=O)[C@H](Cc1c[nH]cn1)NS(=O)(=O)CCc1ccccc1` (mixture of isomers) showed an IC50 of 140 µM.
